The results in this text go back to publication PMC9350387, “Synthetic α‐Helical Peptides as Potential Inhibitors of the ACE2 SARS‐CoV‐2 Interaction” (Chembiochem, 2022).

Data set [1] is described as follows: Fractional α‐helicity by circular dichroism (CD) spectroscopy. Type of data set: physicochemical. The settings on record: for fH (exp), measured fractional helicity via CD spectroscopy: 60 μM peptide, 10 mM sodium phosphate buffer pH 7.4, 4 °C, CDSSTR algorithm on DichroWeb. (Circular dichroism is widely used to follow secondary structure.)
The target of data set [2] is Spike RBD RBD (Severe acute respiratory syndrome coronavirus 2), P0DTC2. Nature of the data set: MST. The settings on record: modification not given.

Consider “Ac-QAKTFLDKFNHEAEDLFYQ-NH2 [P‐1‐3, N‐acetylated parent peptide, α1 from Gln24 to Gln42]”, for which, in data set [1], the “fH (exp), measured fractional helicity via CD spectroscopy” value is no more than 1%. Consider “Ac‐ E QAK AAA DK AA HEAE AAA YQ K ‐NH2 [P‐3‐3]”, for which the “fH (exp), measured fractional helicity via CD spectroscopy” value in data set [1] was found to be 42%. The “α‐helicity from CD spectra (in words)” value in data set [1] (60 μM, 10 mM sodium phosphate buffer, pH 7.4, 4 °C) is listed as “pronounced α‐helicity”.

Turning to “Ac‐ E QAKTFLDKFNHEAEDLFYQ K ‐NH2 [P‐2‐3]”, in data set [1], the “fH (exp), measured fractional helicity via CD spectroscopy” value is reported as 5%. On to “Ac‐βHAsp‐P‐P‐QAKTFLDKFNHEAEDLFYQ‐NH2 [P‐1‐2]”, for which the “fH (exp), measured fractional helicity via CD spectroscopy” value in data set [1] is 4%. As for “Ac‐βHAsp‐[ProM‐5]‐QAKTFLDKFNHEAEDLFYQ‐NH2 [P‐1‐1, βHAsp‐ProM‐5 N‐capped peptide of ACE2 α1 Gln24 to Gln42]”, the “fH (exp), measured fractional helicity via CD spectroscopy” value in data set [1] was 4%.

EQAKTFLDKFNHEAEDLFYQK [ACE2 alpha1 peptide P-2-1]: the dissociation constant (Kd) – broadly, the equilibrium constant for the complex coming apart – in data set [2] was 1210 nM. PPEQAKTFLDKFNHEAEDLFYQK [ACE2 alpha1 peptide P-2-2]: the Kd in data set [2] came to 62 nM.
